Among the data in PubChem BioAssay (NCI) are TGI and GI50 values, retold here.

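Compound exposure: 48 hours, 5 concentrations, 96-well plates. At the GI50, growth is halved. TGI is the concentration that stops growth completely.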

Holding throughout (test): NCI-60 cell line screen, 48 h
In experiment [1] the test system is SF-539 CNS.
Experiment [2] concerns MOLT-4 leukemia.
For experiment [3], the system named is HCT-15 colon.
Experiment [4] has as its system ACHN renal.
Experiment [5] deals with OVCAR-5 ovarian.
For experiment [6], the system named is NCI-H23 lung.
Experiment [7] relates to RPMI-8226 leukemia.

In the case of `CCS(=O)(=O)CCn1cnc2c1c(=O)n(C)c(=O)n2C`, the TGI in experiment [1], in experiment [2], in experiment [3], in experiment [4], in experiment [5] and in experiment [6] was greater than 100 µM in each case.

As to `O=C(O)c1ccccc1/C=N/NC1=NCCCCN1`, the TGI in experiment [1], in experiment [7], in experiment [2], in experiment [3], in experiment [4] and in experiment [5] was greater than 100 µM throughout. The TGI in experiment [6] is greater than 100 µM.

For `COc1cccc(C2C3=C(COC3=O)Oc3cc4c(cc32)OCO4)c1` (configuration not stated), the TGI in experiment [1] was 0.0667 µM; in experiment [7] it was 3.03 µM; in experiment [2], 14.1 µM; in experiment [3], greater than 42.4 µM; in experiment [4], greater than 53.1 µM; in experiment [5] it was greater than 90 µM. In experiment [6], this molecule returned a TGI of 24.9 µM.

On to `COc1cc2c(cc1O)[C@@H]1Cc3c(cc(OC)c(OC)c3Oc3cc4c(cc3OC)CCN(C)[C@@H]4Cc3ccc(O)cc3)[C@H](C2)N1C`, for which the TGI in experiment [1] was 65.2 µM; in experiment [7] it was greater than 79.6 µM; in experiment [2], greater than 90.5 µM; in experiment [3], greater than 100 µM; in experiment [4], greater than 100 µM; in experiment [5] it was greater than 100 µM. The molecule further came in with a TGI in experiment [6] greater than 100 µM.

As to `S=c1sc2nc(Cl)nc(Cl)c2s1`, the TGI was 41.6 µM in experiment [1]; 9.67 µM in experiment [7]; greater than 29.3 µM in experiment [2]; 30.7 µM in experiment [3]; 26.9 µM in experiment [4]; 29.5 µM in experiment [5]. The same molecule yielded a TGI in experiment [6] of 39.3 µM.

On to `CCOC(=O)/C=C1\c2ccccc2C(=O)N1CC(=O)OCC`, for which the TGI in experiment [7], in experiment [2], in experiment [3], in experiment [4], in experiment [5] and in experiment [6] was greater than 100 µM throughout.

For `COc1cc(/C=C/c2cc(/C=C/c3ccc(O)c(OC)c3)oc(=O)c2)ccc1O`, the TGI in experiment [1] was greater than 100 µM; in experiment [7], greater than 20.5 µM; in experiment [2], greater than 26.2 µM; in experiment [3], greater than 34.4 µM; in experiment [4], 15.4 µM; in experiment [5], greater than 100 µM. In experiment [6], this molecule displayed a TGI greater than 24.7 µM.

With `NCCN1CC2CCC(CC2)C1`, the TGI in experiment [1], in experiment [7], in experiment [2], in experiment [3], in experiment [4] and in experiment [6] was greater than 10 µM each time.

Regarding `CC(=O)OC1CC[C@]2(C)C3CC[C@@]4(C)C(CCC4[C@H](C)CCCC(C)C)[C@@H]3CCC2(Br)C1` (some centres not stated), the TGI in experiment [1] was 18.5 µM; in experiment [2], 28 µM; in experiment [3], 33.2 µM; in experiment [4], 20.2 µM; in experiment [5], greater than 50 µM; in experiment [6], 36.5 µM.

As to `C=C1C(=O)O[C@H]2[C@H]1CC(=O)/C(C)=C/CC[C@@]1(C)O[C@@H]21`, the TGI was found to be 4.6 µM in experiment [1]; 1.92 µM in experiment [7]; 1.13 µM in experiment [2]; 1.56 µM in experiment [3]; 1.44 µM in experiment [4]; 6.87 µM in experiment [5]. The TGI in experiment [6] was found to be 4.03 µM. Further, the GI50 in experiment [7] was 0.308 µM; in experiment [2], 0.276 µM.

Consider `Cc1c2c(n(CCN(C)C)c1C)NN=C(C#N)S2(=O)=O`, for which the TGI in experiment [1], in experiment [7], in experiment [2], in experiment [3], in experiment [4] and in experiment [5] was greater than 100 µM throughout. This molecule returned a TGI in experiment [6] greater than 100 µM.

Regarding `N#CCCN(CCN(C(=O)Nc1ccccc1)c1ccccc1)C(=O)Nc1ccccc1`, the TGI in experiment [1] is greater than 100 µM; in experiment [7], greater than 69.2 µM; in experiment [2] it was greater than 84.5 µM; in experiment [3] it was greater than 100 µM; in experiment [4], greater than 100 µM; in experiment [5] it was greater than 100 µM. In experiment [6], this molecule had a TGI greater than 100 µM.

`Cc1ccc(/C=C/C(=N/NC(=O)N/N=C(/C=C/c2ccc(C)cc2)C(C)(C)CN2CCCCC2)C(C)(C)CN2CCCCC2)cc1`: the TGI in experiment [1] was found to be 3.24 µM; in experiment [7] it was 0.897 µM; in experiment [2] it was 0.345 µM; in experiment [3], 3.25 µM; in experiment [4] it was 4.23 µM; in experiment [5], 4.98 µM. In experiment [6], this molecule registered a TGI of 4.82 µM.

`Cc1c(C)c(S(=O)(=O)N(CCCN)OCCCN)c(C)c2c1OC(C)(C)C2`: the TGI in experiment [7] is greater than 100 µM; in experiment [2], 42.7 µM; in experiment [3] it was greater than 100 µM; in experiment [4], greater than 100 µM; in experiment [5], 61.6 µM; in experiment [6], greater than 100 µM.

Take `C=C1CN(Cc2ccccc2)[C@@H]2CCCCC[C@H](C#N)[C@H]12`: the TGI in experiment [1] is greater than 100 µM; in experiment [7], greater than 80.1 µM; in experiment [2], greater than 100 µM; in experiment [3], greater than 100 µM; in experiment [4] it was greater than 100 µM; in experiment [5], greater than 100 µM. Further, the TGI in experiment [6] was greater than 100 µM.

With `COc1ccc(C2SC(C)C(=O)N2c2nc(-c3nc(-c4ccc(Cl)cc4)cs3)cs2)cc1` (configuration not stated), the TGI in experiment [1], in experiment [7], in experiment [2], in experiment [3], in experiment [4] and in experiment [5] was greater than 100 µM in each case. In experiment [6], this molecule gave a TGI greater than 100 µM.

Consider `O=C(/C=C/c1ccc(O)c(O)c1O)OCCc1ccccc1`, for which the TGI in experiment [1] is 70.7 µM; in experiment [7] it was 52.6 µM; in experiment [2], 53.8 µM; in experiment [3], 51.9 µM; in experiment [4], greater than 100 µM; in experiment [5] it was greater than 100 µM. Further, in experiment [6], the TGI turned out to be 48.7 µM.

For `C[C@]12[C@@H]3CC[C@H]1[C@@H](OC(=O)Nc1cc([N+](=O)[O-])cc([N+](=O)[O-])c1)C(=O)N2CC3`, the TGI in experiment [7], in experiment [2], in experiment [3], in experiment [4], in experiment [5] and in experiment [6] was greater than 100 µM each time.
